Data set [1] concerns the target wild-type T7 polymerase (Escherichia phage T7, UniProt P00573). Description: In Vitro Transcription with Wild-Type T7 Polymerase (transcription and capping yield). As to conditions: OD260; for In vitro transcription Yield: wild-type T7 polymerase; for Capping reaction Yield: enzymatic capping. As to the method:
The luciferase and G-CSF modified mRNA were also subjected to an enzymatic capping reaction and each modified mRNA capping reaction was evaluated for yield by spectrophometic measurement (OD260) and correct size assessed using bioanalyzer.

In data set [2] the test system is peripheral blood mononuclear cells (PBMC). Briefly: In Vitro Screening in PBMC - G-CSF protein expression. In kind it is cell-based, human. The following applies: 500 ng mRNA. The source says:
(§1) The supernatant was harvested and stored frozen until analyzed by ELISA to determine the G-CSF protein expression, and the induction of the cytokines interferon-alpha (IFN-α) and tumor necrosis factor alpha (TNF-α).

Data set [3] concerns Balb-C mice. Description: In Vivo Screening of Luciferase Modified mRNA (bioluminescence, total flux). As to conditions: fully modified luciferase mRNA in 1×PBS, subcutaneous, 42 to 103 ug, imaged 8 hours after dosing, total flux of entire mouse. As to the method:
A control of PBS was also tested. The dosages of the modified luciferase mRNA is also outlined in Table 31. 8 hours after dosing the mice were imaged to determine luciferase expression. Twenty minutes prior to imaging, mice were injected intraperitoneally with a D-luciferin solution at 150 mg/kg. Animals were then anesthetized and images were acquired with an IVIS Lumina II imaging system (Perkin Elmer). Bioluminescence was measured as total flux (photons/second) of the entire mouse.

In data set [4] the test system is peripheral blood mononuclear cells (PBMC), tumor necrosis factor alpha (TNF-α). Briefly: In Vitro Screening in PBMC - tumor necrosis factor alpha (TNF-α) induction. The class given is cell-based, human. As to conditions: 500 ng fully modified G-CSF mRNA; for TNF-α Expression (pg/ml) Donor 1: Lipofectamine 2000, PBMC Donor 1, supernatant ELISA; for TNF-α Expression (pg/ml) Donor 2: Lipofectamine 2000, PBMC Donor 2, supernatant ELISA; for TNF-α Expression (pg/ml) Donor 3: Lipofectamine 2000, PBMC Donor 3, supernatant ELISA.
Excerpt: as §1

In data set [5] the test system is peripheral blood mononuclear cells (PBMC), interferon-alpha (IFN-α). In kind it is cell-based, human. The following applies: for IFN-α Expression (pg/ml) Donor 1 / IFN-α Expression (pg/ml) Donor 2 / IFN-α Expression (pg/ml) Donor 3: 500 ng fully modified G-CSF mRNA; for IFN-α Expression (pg/ml) Donor 1: Lipofectamine 2000, PBMC Donor 1, supernatant ELISA; for IFN-α Expression (pg/ml) Donor 2: Lipofectamine 2000, PBMC Donor 2, supernatant ELISA; for IFN-α Expression (pg/ml) Donor 3: Lipofectamine 2000, PBMC Donor 3, supernatant ELISA.
Excerpt: as §1
A general note: An ELISA detects its analyte on a solid surface through an enzyme-linked reagent.

In data set [6] the test system is Salmonella tester strains (TA97a, TA98, TA100 and TA1535) and Escherichia coli strain (WP2 uvrA pKM101). Briefly: Microames Reverse Mutation Screen. The following applies: for Cytotoxicity (reduction in the background lawn and/or number of revertants) / increase in the number of revertant colonies as compared with the vehicle control: any strain, with or without metabolic activation; for mutagenic (microAmes screen): up to 250 ug/well, strains TA97a, TA98, TA100, TA1535 and WP2 uvrA pKM101 with or without metabolic activation. As to the method:
The microames screen is a version of the full Ames preincubation assay. It detects both frameshift and base-pair substitution mutations using four Salmonella tester strains (TA97a, TA98, TA100 and TA1535) and one Escherichia coli strain (WP2 uvrA pKM101). Strains TA97a and TA98 detect frameshift mutations, and TA100, TA1535 and WP2 uvrA pKM101 detect base-pair substitution mutations. This scaled-down Ames test uses minimal compound, is conducted with and without metabolic activation (S9 fraction), and uses multiwell plates. This teste is a microbial assay to detect the mutagenic potential of test compounds.
Positive control compounds were used at 4 different concentrations to ensure the assay system was sensitive to known mutagenic compounds. DMSO was used as the vehicle control.

In data set [7] the test system is rabbit reticulysates. Briefly: G-CSF expression in rabbit reticulysates (ELISA). As to conditions: 250 ng modified G-CSF mRNA in rabbit reticulysates. In kind it is biochemical. The procedure: (§2) To assess the activity of all our different chemical modifications in the context of a second open reading frame, we replicated experiments previously conducted using luciferase mRNA, with human G-CSF mRNA. […] The mutant T7 polymerase was obtained commercially (Durascribe® T7 Transcription kit (Cat. No. DS010925) (Epicentre®, Madison, Wis.).
(§3) The modified RNA in Tables 45 and 46 were transfected in vitro in HeLa cells or added to rabbit reticulysates (250 ng of modified mRNA) as indicated. […] In Table 45, “NT” means not tested.

The test system of data set [8] is HeLa cells. Briefly: G-CSF expression in HeLa cells (ELISA). As to conditions: fully modified G-CSF mRNA transfected in HeLa cells, ELISA. The class given is cell-based, human. As to the method: as §2, §3
Data set [9] has as its system peripheral blood mononuclear cells (PBMC), TNF-alpha. Description: In Vitro PBMC Studies: Percent modification - TNF-alpha expression. In kind it is cell-based, human. As to the method:
(§4) The supernatant was harvested and run by ELISA 22 hours after transfection to determine the protein expression.

For data set [10], the system named is peripheral blood mononuclear cells (PBMC), IFN-alpha. Briefly: In Vitro PBMC Studies: Percent modification - IFN-alpha expression. In kind it is cell-based, human. As to the method:
as §4

Data set [11] has as its system peripheral blood mononuclear cells (PBMC). Description: In Vitro PBMC Studies: Percent modification - G-CSF expression. The following applies: average of PBMC donors D1-D3. In kind it is cell-based, human. As to the method:
480 ng of G-CSF mRNA modified with 5-methylcytosine (5mC) and pseudouridine (pseudoU) or unmodified G-CSF mRNA was transfected with 0.4 uL of Lipofectamine 2000 into peripheral blood mononuclear cells (PBMC) from three normal blood donors (D1, D2, and D3). […] The supernatant was harvested and run by ELISA 22 hours after transfection to determine the protein expression. The expression of IFN-alpha and TNF-alpha may be a secondary effect from the transfection of the G-CSF mRNA.

Where [12] appears, read: G-CSF modified mRNA (wild-type T7).
The mark [13] stands for this setting: Luciferase modified mRNA (wild-type T7).
Setting [14] is: PBMC Donor 1, 0.4 uL Lipofectamine 2000.

We go through nine molecules from patent US20130123481A1, “MODIFIED NUCLEOSIDES, NUCLEOTIDES, AND NUCLEIC ACIDS, AND USES THEREOF” (MODERNA THERAPEUTICS, priority 2011, published 2013).

Sequence of wild-type T7 polymerase (P00573 whole entry): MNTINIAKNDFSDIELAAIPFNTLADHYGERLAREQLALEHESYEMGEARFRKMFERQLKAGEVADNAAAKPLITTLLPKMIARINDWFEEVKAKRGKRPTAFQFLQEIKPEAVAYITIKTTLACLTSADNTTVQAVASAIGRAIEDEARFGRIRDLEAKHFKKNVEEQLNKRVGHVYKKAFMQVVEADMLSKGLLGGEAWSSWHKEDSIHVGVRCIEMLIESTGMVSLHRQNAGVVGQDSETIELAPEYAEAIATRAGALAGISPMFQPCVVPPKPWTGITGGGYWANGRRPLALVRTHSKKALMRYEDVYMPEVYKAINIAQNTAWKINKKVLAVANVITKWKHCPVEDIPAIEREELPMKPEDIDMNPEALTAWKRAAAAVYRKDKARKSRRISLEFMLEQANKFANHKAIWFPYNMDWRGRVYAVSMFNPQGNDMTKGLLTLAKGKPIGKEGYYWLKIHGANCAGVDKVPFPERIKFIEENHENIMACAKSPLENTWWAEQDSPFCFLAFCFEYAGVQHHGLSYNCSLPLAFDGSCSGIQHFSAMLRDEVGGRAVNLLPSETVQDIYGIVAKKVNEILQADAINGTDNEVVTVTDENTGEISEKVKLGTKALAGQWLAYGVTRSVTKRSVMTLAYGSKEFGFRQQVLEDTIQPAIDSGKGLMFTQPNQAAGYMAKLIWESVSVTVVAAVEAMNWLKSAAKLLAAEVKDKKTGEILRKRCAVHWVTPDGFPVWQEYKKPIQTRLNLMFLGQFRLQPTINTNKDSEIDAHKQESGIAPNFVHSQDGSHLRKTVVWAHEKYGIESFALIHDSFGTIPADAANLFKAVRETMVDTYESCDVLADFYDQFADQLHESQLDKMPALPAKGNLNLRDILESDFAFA

Turning to `Cc1cn([C@@H]2O[C@H](CO)[C@@H](O)[C@H]2O)c(=O)nc1N` [5-Methylcytidine, reference compound], the “In vitro transcription Yield” value in data set [1] (G-CSF mRNA) was found to be 2.05 mg. Besides, the “Capping reaction Yield” value in data set [1] (setting [12]) came out at 1.08 mg. Also, in [1] (Luciferase mRNA), the “In vitro transcription Yield” value turned out to be 1.29 mg. Moreover, the “Capping reaction Yield” value in data set [1] (setting [13]) was 1.02 mg. Also, the “G-CSF Protein Expression” value in [2] (setting [14]) is 291 pg/mL. Moreover, the “G-CSF Protein Expression” value in [2] (PBMC Donor 2) turned out to be 277 pg/mL. Also, in data set [2] (PBMC Donor 3), the “G-CSF Protein Expression” value amounted to 359 pg/mL. Further, the “Luciferase expression (photon/second)” value in data set [3] amounted to 1.94E+07 photon/second. Further, in data set [4], the “TNF-α Expression (pg/ml) Donor 1” value turned out to be 176 pg/mL, the “TNF-α Expression (pg/ml) Donor 2” value came out at 136 pg/mL and the “TNF-α Expression (pg/ml) Donor 3” value was determined as 193 pg/mL. In data set [5], the “IFN-α Expression (pg/ml) Donor 1” value is 643 pg/mL, the “IFN-α Expression (pg/ml) Donor 2” value was determined as 359 pg/mL and the “IFN-α Expression (pg/ml) Donor 3” value was found to be 529 pg/mL. In data set [6], the “Cytotoxicity (reduction in the background lawn and/or number of revertants)” value is on record as “not observed”, the “increase in the number of revertant colonies as compared with the vehicle control” value is “no increase” and the “mutagenic (microAmes screen)” value is recorded as “not mutagenic”.

Consider `CC(=O)Nc1ccn([C@@H]2O[C@H](CO)[C@@H](O)[C@H]2O)c(=O)n1` [N4-acetylcytidine], for which, in [7], the “G-CSF protein (pg/ml) Rabbit reticulysates cells” value is reported as 8,000 pg/ml. For the same molecule, the results for the “G-CSF Protein Expression” value in data set [2] (setting [14]), in [2] (PBMC Donor 2) and in [2] (PBMC Donor 3) were 50 pg/mL, 136 pg/mL and 36 pg/mL, respectively. In addition, in data set [3], the “Luciferase expression (photon/second)” value was found to be 1.11E07 photon/second. Also, the “G-CSF protein (pg/ml) HeLa cells” value in [8] was 39,545 pg/ml.

Consider `CN(C)c1nc2c(ncn2[C@@H]2O[C@H](CO)[C@@H](O)[C@H]2O)c(=O)[nH]1` [Compound 50, N,N-dimethyl guanosine], for which the “Average TNF-a” value in data set [9] is 28 pg/mL. Besides, the “Average IFN-a” value in [10] was found to be 376 pg/mL. In addition, the “Average G-CSF” value in data set [11] was 189 pg/mL.

Consider `O=c1[nH]cc([C@@H]2O[C@H](CO)[C@@H](O)[C@H]2O)c(=O)[nH]1` [pseudouridine, Pseudouridine], for which the “G-CSF protein (pg/ml) Rabbit reticulysates cells” value in data set [7] was 147,875 pg/ml. Moreover, the figures for the “G-CSF Protein Expression” value in data set [2] (setting [14]), in data set [2] (PBMC Donor 2) and in data set [2] (PBMC Donor 3) were 2477 pg/mL, 1,909 pg/ml and 1,498 pg/ml, respectively. Besides, the “Luciferase expression (photon/second)” value in data set [3] was 1.36E+07 photon/second. Moreover, in data set [8], the “G-CSF protein (pg/ml) HeLa cells” value was 1,150,909 pg/ml.

Consider `C[C@]1(CO)O[C@@H](n2ccc(N)nc2=O)[C@H](O)[C@@H]1O` [Compound 25, 4′-C-methyl cytidine], for which the “Average TNF-a” value in data set [9] worked out at 44 pg/mL. Moreover, the “Average IFN-a” value in data set [10] was 545 pg/mL. Also, the “Average G-CSF” value in data set [11] was 122 pg/mL.

Turning to `Cn1cc([C@@H]2O[C@H](CO)[C@@H](O)[C@H]2O)c(=O)[nH]c1=O` [N1-methylpseudouridine], the “In vitro transcription Yield” value in [1] (G-CSF mRNA) is listed as 3.24 mg. For the same molecule, the “Capping reaction Yield” value in data set [1] (setting [12]) is listed as 2.58 mg. For the same molecule, the “In vitro transcription Yield” value in [1] (Luciferase mRNA) was found to be 1.43 mg. In addition, in data set [1] (setting [13]), the “Capping reaction Yield” value is 1.27 mg. Moreover, the “G-CSF protein (pg/ml) Rabbit reticulysates cells” value in data set [7] is on record as 230,000 pg/ml. For the same molecule, the “G-CSF Protein Expression” value in [2] (setting [14]) is listed as 21,495 pg/ml. The “G-CSF Protein Expression” value in [2] (PBMC Donor 2) was 16,550 pg/ml. For the same molecule, the “G-CSF Protein Expression” value in [2] (PBMC Donor 3) is 12,441 pg/ml. Further, in data set [4], the “TNF-α Expression (pg/ml) Donor 1” value was 101 pg/mL, the “TNF-α Expression (pg/ml) Donor 2” value was found to be 106 pg/mL and the “TNF-α Expression (pg/ml) Donor 3” value came out at 134 pg/mL. For the same molecule, in data set [5], the “cytokine induction (in words)” value was “no cytokine induction”, the “IFN-α Expression (pg/ml) Donor 1” value is 26 pg/mL, the “IFN-α Expression (pg/ml) Donor 2” value came out at 75 pg/mL and the “IFN-α Expression (pg/ml) Donor 3” value was 138 pg/mL. In data set [6], the “Cytotoxicity (reduction in the background lawn and/or number of revertants)” value is listed as “not observed”, the “increase in the number of revertant colonies as compared with the vehicle control” value is reported as “no increase” and the “mutagenic (microAmes screen)” value was “not mutagenic”.

Consider `O=c1[nH]c(=O)n([C@@H]2O[C@H](CO)[C@@H](O)[C@H]2O)cc1Br` [5-bromouridine], for which the results for the “G-CSF Protein Expression” value in data set [2] (setting [14]), in [2] (PBMC Donor 2) and in data set [2] (PBMC Donor 3) were 314 pg/mL, 482 pg/mL and 291 pg/mL, respectively. Further, the “Luciferase expression (photon/second)” value in data set [3] was found to be 3.75E+07 photon/second.

With `Cn1cc([C@@H]2O[C@H](CO)[C@@H](O)[C@H]2O)c(=O)[nH]c1=O` [Compound 1-methylpseudouridine, 1-methylpseudouridine], the “Luciferase expression (photon/second)” value in [3] was found to be 7.40E+07 photon/second.

As to `Cc1cn([C@@H]2O[C@H](CO)[C@@H](O)[C@H]2O)c(=O)[nH]c1=O` [5-methyluridine], the “G-CSF protein (pg/ml) Rabbit reticulysates cells” value in [7] is on record as 147,250 pg/ml. Besides, the “G-CSF Protein Expression” value in data set [2] (setting [14]) stood at 318 pg/mL; in data set [2] (PBMC Donor 2), 359 pg/mL; in data set [2] (PBMC Donor 3), 345 pg/mL. For the same molecule, in data set [3], the “Luciferase expression (photon/second)” value is given as 7.42E+06 photon/second. Further, the “G-CSF protein (pg/ml) HeLa cells” value in data set [8] is 347,045 pg/ml.
